Consider four compounds from patent US20130225614A1, “4-AZOLYLAMINOQUINAZOLINE DERIVATIVES AND METHODS OF USE THEREOF” (Ambit Biosciences Corporation, priority 2010, published 2013).

A value given as a limit tells only on which side of the number the result lay.

The subject of assay [1] is GM-CSFR/JAK2/STAT5 pathway. The experiment in a line: CSTF-1 cell-based reporter assay (beta-lactamase reporter, GM-CSF stimulated). Particulars: Homo sapiens; csTF-1 cells, GM-CSF at 2 ng/mL, 4 hours; read-out: Cell Assay: CS TF-1 reporter assay IC50. Here is the method:
CSTF-1 cells are derived from the human erythroleukemia cell line that is growth dependent on GM-CSF and has an intact GM-CSFR/JAK2/STAT5 pathway. The cell line contains stably integrated beta-lactamase reporter gene under the control of the […] (irf 1) response element recognized by the activated transcription factor STATS. csTF-1 cells (Invitrogen K1219) were washed with assay media (97% OPTIMEM/0.5% dialyzed FBS/0.1 mM NEAA/1 mM Na pyr/P/S) and seeded in the same media at 5×10^5 cell/mL in T150 flask. After 16 hour incubation, cells were seeded at 2×10^5 cell/well in 50 μl volume, into Costar, clear bottom, 96-well assay plates. Serial dilutions of compounds were added to the plates with final DMSO concentration at 0.5% and GM-CSF at 2 ng/mL and the plates were then incubated at […] and 5% CO2 for 4 hours. The plates were brought to room temperature before adding Substrate Mixture according to manufacturer's protocol (Invitrogen, Catalog #K1085). The assay plates containing the substrate mixture were incubated in the dark at room temperature for 2 hours. Blue and green fluorescence was measured with excitation at 409 nm and emission at 460 nm (for blue) and excitation at 409 nm and emission at 530 nm (for green) using Spectra Max Gemini EM.
(In general: In a reporter assay the amount or activity of a reporter protein is the signal.)

A further assay has as its target T1, JAK2 (Homo sapiens, UniProt O60674).
T1 construct: made in house; host or cells: T7 phage display or HEK-293 cells (alternatives; not specified per kinase)
Briefly: Competition binding assay, Kd against JAK2. As to the method:
(§1) Competition binding assays used herein were developed, validated and performed as described in Fabian et al., Nature Biotechnology 2005, 23, 329-336. Kinases were produced as fusions to T7 phage (See, Fabian et al. or WO04/015142) or alternatively, the kinases were expressed in HEK-293 cells and subsequently tagged with DNA for PCR detection (See, WO08/005,310). For the binding assays, streptavidin-coated magnetic beads were treated with biotinylated affinity ligands for 30 min at rt to generate affinity resins. The liganded beads were blocked with excess biotin and washed with blocking buffer (SeaBlock (Pierce), 1% BSA, 0.05% Tween 20, 1 mM DTT) to remove unbound ligand and to reduce non-specific binding. Binding reactions were assembled by combining kinase, liganded affinity beads, and test compounds in 1× binding buffer (20% SeaBlock, 0.17×PBS, 0.05% Tween 20, 6 mM DTT). Test compounds were prepared as 100× stocks in DMSO and rapidly diluted into the aqueous environment. DMSO was added to control assays lacking a test compound. Primary screen interactions were performed in polypropylene 384-well plates in a final volume of 34 μL, while Kd determinations were performed in polystyrene 96-well plates in a final volume of 135 μL. The assay plates were incubated at room temperature with shaking for 1 hour, long enough for binding reactions to reach equilibrium, and the affinity beads were washed extensively with wash buffer (1×PBS, 0.05% Tween 20) to remove unbound protein. The beads were then resuspended in elution buffer (1×PBS, 0.05% Tween 20, 2 μM non-biotinylated affinity ligand) and incubated at room temperature with shaking for 30 min. The kinase concentration in the eluates was measured by quantitative PCR. Each kinase was tested individually against each compound. Kds were determined using eleven serial threefold dilutions. A selectivity score, which is a quantitative measure of selectivity of a compound against a panel of enzymes, may be calculated for a compound by dividing the number of enzymes for which a compound meets a set criteria, (for example, a binding constant of 100 nM or less), by the total number of enzymes tested.

Another assay deals with T2, JAK3 (Homo sapiens, UniProt P52333).
T2 construct: made in house; host or cells: T7 phage display or HEK-293 cells (alternatives; not specified per kinase)
T2 sequence (P52333 1-1124): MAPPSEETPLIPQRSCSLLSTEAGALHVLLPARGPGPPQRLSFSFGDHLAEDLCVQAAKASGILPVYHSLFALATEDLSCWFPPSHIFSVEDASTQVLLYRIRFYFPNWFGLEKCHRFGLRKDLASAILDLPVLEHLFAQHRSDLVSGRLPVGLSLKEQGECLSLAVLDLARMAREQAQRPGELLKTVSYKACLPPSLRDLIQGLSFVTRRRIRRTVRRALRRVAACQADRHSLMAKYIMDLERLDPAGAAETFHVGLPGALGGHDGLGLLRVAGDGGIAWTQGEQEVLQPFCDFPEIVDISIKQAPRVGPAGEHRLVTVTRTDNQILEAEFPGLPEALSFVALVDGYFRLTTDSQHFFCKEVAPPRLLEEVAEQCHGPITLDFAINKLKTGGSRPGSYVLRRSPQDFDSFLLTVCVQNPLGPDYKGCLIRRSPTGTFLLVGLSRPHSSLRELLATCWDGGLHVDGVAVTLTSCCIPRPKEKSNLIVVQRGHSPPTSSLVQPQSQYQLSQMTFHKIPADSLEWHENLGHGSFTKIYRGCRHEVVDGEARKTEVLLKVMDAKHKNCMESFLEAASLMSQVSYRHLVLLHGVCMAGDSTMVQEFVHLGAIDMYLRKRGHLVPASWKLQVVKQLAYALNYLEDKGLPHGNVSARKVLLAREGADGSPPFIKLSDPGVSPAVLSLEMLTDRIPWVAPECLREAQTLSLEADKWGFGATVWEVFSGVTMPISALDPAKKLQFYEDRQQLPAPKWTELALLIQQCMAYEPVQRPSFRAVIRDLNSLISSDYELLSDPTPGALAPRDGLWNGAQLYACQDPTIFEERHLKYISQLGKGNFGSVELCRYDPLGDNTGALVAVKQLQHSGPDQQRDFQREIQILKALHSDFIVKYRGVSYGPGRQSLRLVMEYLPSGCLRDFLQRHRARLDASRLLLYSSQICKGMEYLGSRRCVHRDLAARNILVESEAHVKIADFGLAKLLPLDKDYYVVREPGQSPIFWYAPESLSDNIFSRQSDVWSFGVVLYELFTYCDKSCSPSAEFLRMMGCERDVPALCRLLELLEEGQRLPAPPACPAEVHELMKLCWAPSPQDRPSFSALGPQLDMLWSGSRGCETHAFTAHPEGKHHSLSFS
The experiment in a line: Competition binding assay, Kd against JAK3. As to the method:
as §1

In assay [2] the test system is distinct kinases tested excluding mutant variants, typically 359 or 386 kinases. Briefly: Kinase selectivity in competition binding assays (S10 score; kinases within 100-fold of JAK2 Kd). The note with it: compound at 10 μM; fraction of kinases with inhibition of 90% or greater. Here is the method:
as §1
In certain embodiments, the compounds provided herein bind to JAK2 kinase with higher specificity as compared to non-mutant and non-JAK family kinases. For certain compounds provided herein, binding constants for less than 10 non-mutant and non-JAK family kinases are within 100-fold of the binding constant for JAK2 kinase for compounds provided herein. For certain compounds provided herein, binding constants for less than 8 non-mutant and non-JAK family kinases are within 100-fold of the binding constant for JAK2 kinase for compounds provided herein. […]

T1 sequence (O60674 whole entry): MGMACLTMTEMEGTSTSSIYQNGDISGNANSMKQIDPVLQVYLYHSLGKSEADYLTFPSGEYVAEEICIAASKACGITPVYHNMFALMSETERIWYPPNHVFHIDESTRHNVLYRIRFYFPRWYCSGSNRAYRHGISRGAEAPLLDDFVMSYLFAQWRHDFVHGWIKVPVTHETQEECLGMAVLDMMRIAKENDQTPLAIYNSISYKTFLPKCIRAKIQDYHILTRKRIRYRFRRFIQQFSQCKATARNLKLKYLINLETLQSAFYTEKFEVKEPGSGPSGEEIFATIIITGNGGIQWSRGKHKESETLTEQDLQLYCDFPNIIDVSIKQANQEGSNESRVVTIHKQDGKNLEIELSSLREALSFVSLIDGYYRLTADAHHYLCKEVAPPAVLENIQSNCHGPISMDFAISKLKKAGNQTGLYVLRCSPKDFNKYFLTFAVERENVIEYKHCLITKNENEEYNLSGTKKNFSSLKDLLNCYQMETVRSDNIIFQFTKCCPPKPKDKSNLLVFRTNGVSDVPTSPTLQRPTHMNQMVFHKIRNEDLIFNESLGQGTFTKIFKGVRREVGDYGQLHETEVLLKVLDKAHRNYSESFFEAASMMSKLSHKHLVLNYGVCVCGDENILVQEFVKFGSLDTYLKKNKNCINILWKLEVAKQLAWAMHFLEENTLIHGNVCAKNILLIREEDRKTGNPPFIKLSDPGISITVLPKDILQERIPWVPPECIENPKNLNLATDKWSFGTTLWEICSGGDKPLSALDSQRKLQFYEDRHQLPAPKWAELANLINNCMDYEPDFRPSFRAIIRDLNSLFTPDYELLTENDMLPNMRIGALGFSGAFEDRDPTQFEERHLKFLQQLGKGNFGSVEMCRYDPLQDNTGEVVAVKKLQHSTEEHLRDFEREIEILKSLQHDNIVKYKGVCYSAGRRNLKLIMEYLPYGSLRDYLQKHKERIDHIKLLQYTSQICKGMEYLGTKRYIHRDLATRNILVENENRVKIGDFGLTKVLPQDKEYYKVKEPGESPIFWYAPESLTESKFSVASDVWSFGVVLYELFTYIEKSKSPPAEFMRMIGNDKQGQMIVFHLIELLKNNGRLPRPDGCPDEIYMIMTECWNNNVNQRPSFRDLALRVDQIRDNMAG

For the compound `OC(c1ccc(F)cc1)c1nc(Nc2c[nH]cn2)c2ccccc2n1` (racemic) [Example 3, (R,S)-(4-(1H-imidazol-4-ylamino)quinazolin-2-yl)(4-fluorophenyl)methanol], the half-inhibitory concentration (IC50) (as a rule, the concentration that inhibits the measured activity by half) in assay [1] was above 500 nM. Moreover, the dissociation constant (Kd) (usually the constant that tells how readily two partners part at equilibrium) at JAK2 was 10 to 50 nM; on JAK3, above 100 nM. Besides, the “S-Score: S(10) at 10 μM” value in assay [2] was “A (A ≦ 0.3)”.

Consider `OC(c1ccc(F)cc1)c1nc(Nc2cscn2)c2ccccc2n1` (racemic) [Example 4, (R,S)-(4-fluorophenyl)(4-(thiazol-4-ylamino)quinazolin-2-yl)methanol], for which, in assay [1], the half-maximal inhibitory concentration (IC50) was above 500 nM. Moreover, the Kd on JAK2 was 10 to 50 nM; at JAK3, above 100 nM. In addition, the “S-Score: S(10) at 10 μM” value in assay [2] was “A (A ≦ 0.3)”.

Consider `Cn1cnc(Nc2nc(C(O)c3ccc(F)cc3)nc3ccccc23)c1` (racemic) [Example 2, (R,S)-(4-fluorophenyl)(4-(1-methyl-1H-imidazol-4-ylamino)quinazolin-2-yl)methanol], for which, in assay [1], the 50% inhibitory concentration (IC50) was in the range of 100 to 500 nM. Besides, the equilibrium dissociation constant (Kd) at JAK2 is at most 10 nM; at JAK3 it was 10 to 100 nM. Further, the “S-Score: S(10) at 10 μM” value in assay [2] is listed as “A (A ≦ 0.3)”.

Regarding `Cc1cnc(Nc2nc(C(O)c3ccc(F)cc3)nc3ccccc23)s1` (racemic) [Example 5, (R,S)-(4-fluorophenyl)(4-(5-methylthiazol-2-ylamino)quinazolin-2-yl)methanol], the concentration for half-maximal inhibition (IC50) in assay [1] is above 500 nM. In addition, the values for the Kd at JAK2 and at JAK3 were at most 10 nM and above 100 nM, respectively. Also, in assay [2], the “S-Score: S(10) at 10 μM” value is reported as “A (A ≦ 0.3)”.
